biological target: mouse TRPM3α2 (mTRPM3) ion channel (Mus musculus (Mouse), UniProt J9SQF3); assay: TRPM3 ion channel driven Ca2+ uptake, Fluo-4 AM assay, mTRPM3alpha2 overexpressing flip-in HEK293 cells stimulated with pregnenolone sulfate; type: cell-based; conditions: PS 50 μM, cpds 200-299
Procedure, shortened: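 Read-out is Ca2+ influx via Fluo-4 AM fluorescence at 485/535 nm, taken right after seeding ~2000 cells/well onto compound with 50 μM PS. Inhibition computed from RFU between vehicle-stimulated and positive-control-inhibitor wells; cells were mTRPM3α2-overexpressing flip-in HEK293.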

Sequence of mouse TRPM3α2 (mTRPM3) ion channel (J9SQF3 other isoform, or with tags, fused parts or gaps): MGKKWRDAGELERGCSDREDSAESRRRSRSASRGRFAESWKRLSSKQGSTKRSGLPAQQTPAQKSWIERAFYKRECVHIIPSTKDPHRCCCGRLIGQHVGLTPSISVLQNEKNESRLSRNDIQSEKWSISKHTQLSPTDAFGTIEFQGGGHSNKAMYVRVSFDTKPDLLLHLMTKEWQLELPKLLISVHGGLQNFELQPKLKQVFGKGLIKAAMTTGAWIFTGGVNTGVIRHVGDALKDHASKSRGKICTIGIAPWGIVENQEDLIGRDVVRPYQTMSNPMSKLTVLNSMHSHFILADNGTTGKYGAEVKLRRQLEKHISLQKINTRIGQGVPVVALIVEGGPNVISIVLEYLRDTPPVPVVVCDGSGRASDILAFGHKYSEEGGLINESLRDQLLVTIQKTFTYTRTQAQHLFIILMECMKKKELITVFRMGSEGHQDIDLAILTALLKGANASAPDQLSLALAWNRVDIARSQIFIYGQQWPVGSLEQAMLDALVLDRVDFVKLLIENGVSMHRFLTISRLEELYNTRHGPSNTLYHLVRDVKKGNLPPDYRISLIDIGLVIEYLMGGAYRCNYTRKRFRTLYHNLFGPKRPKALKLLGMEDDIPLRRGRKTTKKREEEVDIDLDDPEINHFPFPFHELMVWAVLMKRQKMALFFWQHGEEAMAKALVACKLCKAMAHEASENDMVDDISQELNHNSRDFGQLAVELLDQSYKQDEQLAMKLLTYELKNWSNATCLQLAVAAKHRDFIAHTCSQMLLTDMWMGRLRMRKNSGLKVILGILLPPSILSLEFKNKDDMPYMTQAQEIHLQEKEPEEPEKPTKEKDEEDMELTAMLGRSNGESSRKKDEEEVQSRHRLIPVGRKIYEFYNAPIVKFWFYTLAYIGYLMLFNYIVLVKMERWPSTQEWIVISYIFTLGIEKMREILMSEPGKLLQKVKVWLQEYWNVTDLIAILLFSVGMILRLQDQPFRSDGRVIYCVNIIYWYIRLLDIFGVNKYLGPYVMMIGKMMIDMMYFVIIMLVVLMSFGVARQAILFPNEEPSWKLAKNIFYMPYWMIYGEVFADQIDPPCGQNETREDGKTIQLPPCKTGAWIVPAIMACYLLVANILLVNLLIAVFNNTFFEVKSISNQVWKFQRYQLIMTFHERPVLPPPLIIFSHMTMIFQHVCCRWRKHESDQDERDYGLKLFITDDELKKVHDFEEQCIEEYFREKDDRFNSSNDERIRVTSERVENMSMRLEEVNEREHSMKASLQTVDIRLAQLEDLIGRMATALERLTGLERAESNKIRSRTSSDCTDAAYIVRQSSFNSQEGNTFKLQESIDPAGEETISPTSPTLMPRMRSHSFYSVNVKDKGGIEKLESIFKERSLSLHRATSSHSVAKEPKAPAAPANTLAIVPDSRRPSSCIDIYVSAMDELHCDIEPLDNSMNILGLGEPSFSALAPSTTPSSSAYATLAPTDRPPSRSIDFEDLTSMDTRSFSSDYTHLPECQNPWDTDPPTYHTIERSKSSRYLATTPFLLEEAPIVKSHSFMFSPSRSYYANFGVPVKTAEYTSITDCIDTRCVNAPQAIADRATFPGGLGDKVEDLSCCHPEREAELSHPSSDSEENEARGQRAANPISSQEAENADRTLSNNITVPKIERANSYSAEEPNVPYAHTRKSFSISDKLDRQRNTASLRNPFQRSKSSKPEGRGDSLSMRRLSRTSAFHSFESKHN

IC50, < 1 µM:
Cc1ncc(COc2ccc3oc(C)c(C(=O)N[C@H](CO)CS(C)(=O)=O)c3c2)s1 [compound 274, (R)-N-(1-hydroxy-3-(methylsulfonyl)propan-2-yl)-2-methyl-5-((2-methylthiazol-5-yl)methoxy)benzofuran-3-carboxamide]
Cc1ncsc1COc1ccc2oc(C)c(C(=O)N[C@H](CO)CS(C)(=O)=O)c2c1 [compound 275]
CNC(=O)[C@@H](CO)NC(=O)c1c(C)oc2ccc(OCc3scnc3C)cc12 [compound 276, (R)-N-(3-hydroxy-1-(methylamino)-1-oxopropan-2-yl)-2-methyl-5-((4-methylthiazol-5-yl)methoxy)benzofuran-3-carboxamide]
Cc1ncc(COc2ccc3oc(C)c(C(=O)N[C@@H](CO)C(=O)N(C)C)c3c2)s1 [compound 278, (S)-N-(1-(dimethylamino)-3-hydroxy-1-oxopropan-2-yl)-2-methyl-5-((2-methylthiazol-5-yl)methoxy)benzofuran-3-carboxamide]
Cc1ncsc1COc1ccc2oc(C)c(C(=O)N[C@@H](C)C(N)=O)c2c1 [compound 279, (S)-N-(1-amino-1-oxopropan-2-yl)-2-methyl-5-((4-methylthiazol-5-yl)methoxy)benzofuran-3-carboxamide]
Cc1oc2ccc(OCc3cccnc3C(F)(F)F)cc2c1C(=O)N[C@@H](CO)C(N)=O [compound 280, (S)-N-(1-amino-3-hydroxy-1-oxopropan-2-yl)-2-methyl-5-((2-(trifluoromethyl)pyridin-3-yl)methoxy)benzofuran-3-carboxamide]
Cc1oc2ccc(OCc3cnc(C(F)(F)F)s3)cc2c1C(=O)N[C@@H](CO)C(N)=O [compound 281, (S)-N-(1-amino-3-hydroxy-1-oxopropan-2-yl)-2-methyl-5-((2-(trifluoromethyl)thiazol-5-yl)methoxy)benzofuran-3-carboxamide]
Cc1nc(C(F)(F)F)c(COc2ccc3oc(C)c(C(=O)N[C@@H](CO)C(N)=O)c3c2)s1 [compound 282, (S)-N-(1-amino-3-hydroxy-1-oxopropan-2-yl)-2-methyl-5-((2-methyl-4-(trifluoromethyl)thiazol-5-yl)methoxy)benzofuran-3-carboxamide]
Cc1ncc(COc2ccc3oc(C)c(C(=O)N[C@@H](CO)C(N)=O)c3c2)o1 [compound 283, (S)-N-(1-amino-3-hydroxy-1-oxopropan-2-yl)-2-methyl-5-((2-methyloxazol-5-yl)methoxy)benzofuran-3-carboxamide]
Cc1ncccc1COc1ccc2oc(C)c(C(=O)N[C@@H](CO)C(N)=O)c2c1 [compound 284, (S)-N-(1-amino-3-hydroxy-1-oxopropan-2-yl)-2-methyl-5-((2-methylpyridin-3-yl)methoxy)benzofuran-3-carboxamide]
Cc1nc(COc2ccc3oc(C)c(C(=O)N[C@@H](CO)C(N)=O)c3c2)cs1 [compound 285, (S)-N-(1-amino-3-hydroxy-1-oxopropan-2-yl)-2-methyl-5-((2-methylthiazol-4-yl)methoxy)benzofuran-3-carboxamide]
Cc1oc2ccc(OCc3c[nH]nc3C(F)(F)F)cc2c1C(=O)N[C@@H](CO)C(N)=O [compound 286, (S)-N-(1-amino-3-hydroxy-1-oxopropan-2-yl)-2-methyl-5-((3-(trifluoromethyl)-1H-pyrazol-4-yl)methoxy)benzofuran-3-carboxamide]
Cc1ccncc1COc1ccc2oc(C)c(C(=O)N[C@@H](CO)C(N)=O)c2c1 [compound 287]
Cc1ncsc1COc1ccc2oc(C)c(C(=O)N[C@@H](CO)C(N)=O)c2c1 [compound 288, (S)-N-(1-amino-3-hydroxy-1-oxopropan-2-yl)-2-methyl-5-((4-methylthiazol-5-yl)methoxy)benzofuran-3-carboxamide]
Cc1cc(COc2ccc3oc(C)c(C(=O)N[C@@H](CO)C(N)=O)c3c2)no1 [compound 289, (S)-N-(1-amino-3-hydroxy-1-oxopropan-2-yl)-2-methyl-5-((5-methylisoxazol-3-yl)methoxy)benzofuran-3-carboxamide]
Cc1oc2ccc(OCc3ncsc3C)cc2c1C(=O)N[C@@H](CO)C(N)=O [compound 290, (S)-N-(1-amino-3-hydroxy-1-oxopropan-2-yl)-2-methyl-5-((5-methylthiazol-4-yl)methoxy)benzofuran-3-carboxamide]
Cc1ccc(COc2ccc3oc(C)c(C(=O)N[C@@H](CO)C(N)=O)c3c2)cn1 [compound 291, (S)-N-(1-amino-3-hydroxy-1-oxopropan-2-yl)-2-methyl-5-((6-methylpyridin-3-yl)methoxy)benzofuran-3-carboxamide]
Cc1oc2ccc(OCC3COC3)cc2c1C(=O)N[C@@H](CO)C(N)=O [compound 292, (S)-N-(1-amino-3-hydroxy-1-oxopropan-2-yl)-2-methyl-5-(oxetan-3-ylmethoxy)benzofuran-3-carboxamide]
Cc1oc2ccc(OCc3cccnn3)cc2c1C(=O)N[C@@H](CO)C(N)=O [compound 293, (S)-N-(1-amino-3-hydroxy-1-oxopropan-2-yl)-2-methyl-5-(pyridazin-3-ylmethoxy)benzofuran-3-carboxamide]
Cc1oc2ccc(OCc3ccncn3)cc2c1C(=O)N[C@@H](CO)C(N)=O [compound 294, (S)-N-(1-amino-3-hydroxy-1-oxopropan-2-yl)-2-methyl-5-(pyrimidin-4-ylmethoxy)benzofuran-3-carboxamide]
Cc1oc2ccc(OCc3ccnn3CC(F)F)cc2c1C(=O)N[C@@H](CO)C(N)=O [compound 295, (S)-N-(1-amino-3-hydroxy-1-oxopropan-2-yl)-5-((1-(2,2-difluoroethyl)-1H-pyrazol-5-yl)methoxy)-2-methylbenzofuran-3-carboxamide]
Cc1oc2ccc(OCc3cccnc3OC(F)F)cc2c1C(=O)N[C@@H](CO)C(N)=O [compound 296, (S)-N-(1-amino-3-hydroxy-1-oxopropan-2-yl)-5-((2-(difluoromethoxy)pyridin-3-yl)methoxy)-2-methylbenzofuran-3-carboxamide]
Cc1oc2ccc(OCc3cccnc3N(C)C)cc2c1C(=O)N[C@@H](CO)C(N)=O [compound 297, (S)-N-(1-amino-3-hydroxy-1-oxopropan-2-yl)-5-((2-(dimethylamino)pyridin-3-yl)methoxy)-2-methylbenzofuran-3-carboxamide]
Cc1nc(C)c(COc2ccc3oc(C)c(C(=O)N[C@@H](CO)C(N)=O)c3c2)s1 [compound 298, (S)-N-(1-amino-3-hydroxy-1-oxopropan-2-yl)-5-((2,4-dimethylthiazol-5-yl)methoxy)-2-methylbenzofuran-3-carboxamide]
Cc1nc(COc2ccc3oc(C)c(C(=O)N[C@@H](CO)C(N)=O)c3c2)c(C)s1 [compound 299, (S)-N-(1-amino-3-hydroxy-1-oxopropan-2-yl)-5-((2,5-dimethylthiazol-4-yl)methoxy)-2-methylbenzofuran-3-carboxamide]

same assay, conditions: PS 50 μM, cpds 300-399

IC50, < 1 µM:
Cc1oc2ccc(OCc3cccnc3N)cc2c1C(=O)N[C@@H](CO)C(N)=O [compound 300, (S)-N-(1-amino-3-hydroxy-1-oxopropan-2-yl)-5-((2-aminopyridin-3-yl)methoxy)-2-methylbenzofuran-3-carboxamide]
Cc1oc2ccc(OCc3ncccc3C(F)F)cc2c1C(=O)N[C@@H](CO)C(N)=O [compound 301, (S)-N-(1-amino-3-hydroxy-1-oxopropan-2-yl)-5-((3-(difluoromethyl)pyridin-2-yl)methoxy)-2-methylbenzofuran-3-carboxamide]
Cc1oc2ccc(OCc3c(F)cnn3C)cc2c1C(=O)N[C@@H](CO)C(N)=O [compound 302, (S)-N-(1-amino-3-hydroxy-1-oxopropan-2-yl)-5-((4-fluoro-1-methyl-1H-pyrazol-5-yl)methoxy) -2-methylbenzofuran-3-carboxamide]
COC[C@H](NC(=O)c1c(C)oc2ccc(OCc3cnc(C)s3)cc12)C(N)=O [compound 303, (S)-N-(1-amino-3-methoxy-1-oxopropan-2-yl)-2-methyl-5-((2-methylthiazol-5-yl)methoxy)benzofuran-3-carboxamide]
Cc1ncsc1COc1ccc2oc(C)c(C(=O)N[C@H](C(N)=O)C(C)C)c2c1 [compound 304, (S)-N-(1-amino-3-methyl-1-oxobutan-2-yl)-2-methyl-5-((4-methylthiazol-5-yl)methoxy)benzofuran-3-carboxamide]
CNC(=O)[C@H](CO)NC(=O)c1c(C)oc2ccc(OCc3cnc(C)s3)cc12 [compound 305, (S)-N-(3-hydroxy-1-(methylamino)-1-oxopropan-2-yl)-2-methyl-5-((2-methylthiazol-5-yl)methoxy)benzofuran-3-carboxamide]
CNC(=O)[C@H](CO)NC(=O)c1c(C)oc2ccc(OCc3scnc3C)cc12 [compound 306, (S)-N-(3-hydroxy-1-(methylamino)-1-oxopropan-2-yl)-2-methyl-5-((4-methylthiazol-5-yl)methoxy)benzofuran-3-carboxamide]
O=C(NC1(CO)CCOCC1)c1c(C(F)F)oc2ccc(OCc3cccnc3O)cc12 [compound 311, 2-(difluoromethyl)-N-(4-(hydroxymethyl)tetrahydro-2H-pyran-4-yl)-5-((2-oxo-1,2-dihydropyridin-3-yl)methoxy)benzofuran-3-carboxamide]

Source: patent US12209081B2 (Katholieke Universiteit Leuven, priority 2020, dated 2025)
